The subject of series [1] is Human immunodeficiency virus 1. Briefly: Antiviral activity against HIV-1 3B infected in human MT2 cells assessed as inhibition of virus-induced cytopathic effect after 7 days by MTT assay. It counts as functional, organism-based. To be noted: Human immunodeficiency virus 1, 3B, MT2, 168 h. (In general: Cytopathic effects are the visible damage that an infection or toxin causes in cultured cells.)

Series [2] in a line: Cytotoxicity against human MT2 cells after 7 days by MTT assay. Type of series: cell-based. On the technique in general: Tetrazolium assays rely on reduction of a dye to a coloured formazan, in cell work by metabolically active cells.
For the next series, the system named is HBV genotype D. As to the kind of experiment: Antiviral activity against HBV genotype D infected in human HepG2.2.15 cells assessed as reduction in viral DNA level after 7 days by RT-PCR assay. Type of series: functional, organism-based. The note with it: Hepatitis B virus, HepG2.2.15, 168 h.
Series [3] can be described thus: Cytotoxicity against human HepG2.2.15 cells after 7 days by MTT assay. It counts as cell-based, HepG2 2.2.15.
Series [4] in a line: Selectivity index, ratio of CC50 for cytotoxicity against human HepG2.2.15 cells to EC50 for HBV genotype D infected in human HepG2.2.15 cells. Type of series: toxicity, cell-based. To be noted: read-out: Ratio CC50/EC50.

pEC50: −log10 of the molar value.

For orientation: pEC50 means the EC50 on a negative log10 scale, so that one unit is a factor of ten. What is called CC50 is the concentration that lowers cell viability or growth by half. A low value points to harm at low concentration.

As for `Nc1ncnc2c1ncn2[C@H]1C=C(Br)[C@H](CO)[C@H]1CO`, the pEC50 is under 4.00 in series [1] and 7.54 in the series on HBV genotype D. Further, the CC50 at 168 h in series [2] and in series [3] was over 100 µM each time.

Consider `Nc1ncnc2c1ncn2[C@@H]1C=C[C@H](CO)[C@H]1CO`, for which the pEC50 in series [1] was 6.11; in the series on HBV genotype D, 7.34. Besides, the values for the half-maximal cytotoxic concentration (CC50) at 168 h in series [2] and in series [3] were 153 µM and over 100 µM, respectively.

`Nc1ncnc2c1ncn2[C@H]1C=C(Cl)[C@H](CO)[C@H]1CO`: the negative-log EC50 (pEC50) in series [1] was under 4.00; in the series with HBV genotype D, 6.84. For the same compound, the 50% cytotoxic concentration (CC50) at 168 h in series [2] is over 100 µM.

As to `Nc1ncnc2c1ncn2[C@H]1C=C(F)[C@H](CO)[C@H]1CO`, the pEC50 in series [1] was under 4.00; in the series with HBV genotype D, 7.72. In addition, the CC50 at 168 h in series [2] and in series [3] was over 100 µM throughout. In addition, the selectivity ratio in series [4] worked out at 5260.

Regarding `Nc1ncnc2c1ncn2[C@H]1C=C(I)[C@H](CO)[C@H]1CO`, the negative logarithm of the EC50 (pEC50) in series [1] is under 4.00; in the series on HBV genotype D, 6.36. The cytotoxic concentration (CC50) at 168 h in series [2] is over 100 µM.

On to `C=C1[C@H](CO)[C@@H](O)C[C@@H]1n1cnc2c(=O)[nH]c(N)nc21` [ENTECAVIR], for which, in the series on HBV genotype D, the pEC50 was 8.42. The CC50 at 168 h in series [3] is 52.9 µM.

(Values after ChEMBL document CHEMBL4325927, “Synthesis, Anti-HBV, and Anti-HIV Activities of 3'-Halogenated Bis(hydroxymethyl)-cyclopentenyladenines” (ACS Med Chem Lett, 2018).)
